Results published in US6140309A, “Vasoactive effects and free radical generation by β-amyloid peptides” (University of South Florida, priority 1996, dated 2000).
“Also recorded” adds a separate entry of the source.

Experiments:
[1] = system: blood vessel (rat aorta) with intact endothelium; assay: β-amyloid induced contraction (vasoactivity) of blood vessel rings in tissue bath; assay type: cell-based
Procedure: (§1) Freshly excised rat and porcine blood vessels were placed in Kreb's bicarbonate buffer equilibrated with 5% CO2 in O2. The buffer composition consisted of 118.2 mM NaCl, 4.7 mM KCl, 1.2 mM MgSO4, 2.5 mM CaCl2, 1.2 mM NaH2 PO4, 23 mM NaHCO3 and 11.2 mM glucose. After cleaning the vessels free of fat and other adhering tissues, the vessels were cut into ring segments of approximately 3mm in length. Care was taken not to damage the intimal surface.
The endothelium was removed from some preparations by rubbing the inside of the lumen with a metal spatula for six to ten seconds and subsequent rinsing with buffer. The removal of endothelium was confirmed by testing for relaxation to acetylcholine [Furchgott and Zawadzki, 1980].
(§2) The blood vessel preparations were mounted on stainless steel hooks attached to a force-displacement transducer and equilibrated under the optimum tension of 1.3 g for a period of sixty minutes in a tissue bath (10 ml) containing oxygenated (5% CO2 in O2) Kreb's buffer at 37° C. The buffer was changed every fifteen minutes. After equilibration for sixty minutes the viability of the blood vessel with intact endothelium was established by constricting the blood vessel using phenylephrine ([…]). This dose of phenylephrine elicited 80% of the maximum response. […] The vessel preparations were washed for fifteen minutes before various manipulations as described below.
Referring to FIG. 10, the arrow indicates the addition of 10^-6 M β-amyloid. The control tissue received no β-amyloid. SOD (150 units/ml) was added thirty seconds prior to the addition of β-amyloid. The maximum contraction induced by β-amyloid was 1.14±0.13 (g) and in presence of SOD the contraction was reduced to 0.04±0.02 (g). Values represent the mean ±SEM of five separate experiments.

[2] = system: blood vessel (rat aorta); assay: Acetylcholine induced relaxation of phenylephrine-preconstricted aorta after β-amyloid pretreatment; assay type: cell-based
Procedure: as §1, §2
As shown in FIG. 11a the aorta was preconstricted with 10^-7 M PE and relaxed with increasing doses of acetylcholine as shown by the arrows. (1=10^-9 M, 2=10^-8 M, 3=5×10^-8 M, 4=10^-7 M, 5=5×10^-7 M, 6=10^-6 M, 7=10^-5 M, 8=5×10^-5 M, the curve denoted by (C) is the control curve and +Aβ indicates the curve for β-amyloid treated aorta.)
FIG. 11b illustrates the relaxation by acetylcholine under control conditions and following fifteen minute incubation with 10^-6 M β-amyloid protein. The acetylcholine relaxation curve is shifted to the right but maintains its sigmoidal form indicating attenuation of acetylcholine induced relaxation. Values represent the mean ±SEM of 5 or more experiments. […] At higher doses of acetylcholine greater percentage changes in relaxation occur preserving the sigmoidal response.

[3] = system: aortic rings; assay: β-amyloid augmentation of phenylephrine (PE) induced contraction of aortic rings; assay type: cell-based, rat; conditions: for PE induced contraction, +β-Amyloid P1 (±SEM), percent of control value: 10^-6 M β-amyloid fifteen minutes, control maximum = 100%; for PE induced contraction, +β-Amyloid P2 (±SEM), percent of control value: repeated after rinsing, no further β-amyloid
Procedure: as §1, §2
The procedure was then repeated following incubation of the tissue with 10^-6 M β-amyloid for fifteen minutes (P1). The tissue was then rinsed and contractions repeated twice following fifteen minute incubation (P2 & P3) without further addition of β-amyloid. Arrows are shown for points of addition for P3.
Following a fifteen minute incubation, the preparations were contracted with 10^-7 M phenylephrine (PE) as described earlier. Control contractions with PE alone were carried out in presence of the various test compounds. Values represent the mean ±SEM of four or more experiments. The heat-inactivated SOD was prepared by placing it in boiling water for thirty minutes followed by cooling prior to use. The hydrogen peroxide-inactivated SOD was prepared by exposing SOD to 10 mM H2 O2 for thirty minutes at pH 8.5 and subsequent separation using Microcon filtration system. The amyloid induced PE contraction was blocked by active SOD. Neither albumin or inactivated SOD had any effect on the amyloid activity.
The effect of preincubation of blood vessel with 10^-6 M β-amyloidon contraction induced by phenylephrine (2,4,8, & 16×10^-8 M is shown in Table 1). The maximum contraction in the absence of β-amyloid is taken as 100% and the values obtained following exposure to β-amyloid are expressed as percent of control value. After washing out phenylephrine and acetylcholine of the control contraction, β-amyloid augmented the phenylephrine induced contractions (P1). This effect was blocked by SOD. Washing out the phenylephrine and acetylcholine of the post peptide contraction and repeating the contractions caused further enhancement (P2). Values represent the mean ±SEM of nine or more experiments.
The tissue was then incubated for fifteen minutes with β-amyloid (5×10^-7 M) with or without the drug, followed by contractions with PE. The concentrations compounds used were: L-NMMA, an inhibitor of NO synthase (10^-4 M); indomethacin, an inhibitor of the cyclooxygenase pathway (10^-5 M); SQ 29548, a thromboxane A2 receptor antagonist (10^-5 M); and catalase (1000 units/ml). Values are represented as percentage of the maximal contraction obtained with β-amyloid and PE alone and standardized to remove the intrinsic effects (if any) of each drug on PE contraction alone. The results represent the mean ±SEM of five or more experiments.

[4] = system: endothelial cells in aortic rings; assay: Electron microscopy of the endothelial cell layer in aortic rings; assay type: cell-based, rat
Procedure: As shown in FIGS. 14A-F, […], or in presence of β-amyloid (10^-6 M), or SOD (150 units/ml) and β-amyloid.The tissue samples were kept in glutaraldehyde solution at 4° C. until processed and then rinsed with cacodylate buffer. The tissues were postfixed with 1% buffered osmium tetroxide, dehydrated with graded ethanol solutions, and embedded in a mixture of eponaraldite. Ultrathin sections were stained with uranyl acetate and lead citrate and viewed on model 7000 Hitachi transmission electron microscope. The inset bar indicates one micron. The experiment was repeated three or more times with blood vessels from different animals.

[5] = system: endothelial cell layer in rat coronary artery; assay: Electron microscopy of the endothelial cell layer in rat coronary artery; assay type: cell-based; conditions: β-amyloid thirty minutes at 10^-6 M
Procedure: The physiological effects of β-amyloid treatment on the coronary artery with and without pretreatment with SOD is shown in FIGS. 7A-C. FIGS. 7A-C are electron micrographs showing the endothelial cell layer in rat coronary artery. […] The tissue samples were kept in glutaraldehyde solution at 4° C. until processed and then rinsed with cacodylate buffer. The tissues were post-fixed with 1% buffered osmium tetroxide, dehydrated with grated ethanol solutions, and embedded in a mixture of eponaraldite. Ultra thin sections were stained with uranyl acetate and lead citrate and viewed on a model 7,000 Hitachi transmission electron microscope. The inset bar indicates two microns. The experiment was repeated three or more times with blood vessels from different animals. FIG. 7A is a control coronary artery and depicts normal endothelial cells closely adhering to the intimal elastic lamina lining of the lumen. […] FIG. 7C depicts a rat coronary artery pretreated with SOD (150 units/ml, for thirty seconds prior to the addition of β-amyloid).

[6] = system: porcine coronary arteries; assay: Amyloid peptide induced contraction of porcine coronary arteries; assay type: cell-based; conditions: increasing concentrations of amyloid peptide
Description: Freshly isolated porcine coronary arteries were studied by the methods described above for rat aorta.

[7] = system: Porcine aorta; assay: U46619 constriction and bradykinin relaxation of porcine vessel after amyloid peptide; assay type: cell-based; conditions: single dose of amyloid
Description: The effect of pre-treatment with a single dose of amyloid protein on relaxation induced by increasing concentrations of the vasodilator bradykinin is shown in FIG. 23. […] was preconstricted with a single dose of the vasoconstrictor U46619.

[8] = system: bovine mid cerebral arteries; assay: Effect of β-amyloid on bovine cerebral artery (U46619 contraction, bradykinin vasodilation); assay type: cell-based; conditions: 1 μM β-amyloid for 15 minutes
Procedure: Freshly dissected bovine mid cerebral arteries were cut into 3 mm rings and studied in tissue chamber as described earlier. Contraction of the blood vessel to the vasoconstrictor U46619 was studied before and after treatment with 1 μM β-amyloid for 15 minutes. […] (See FIG. 24).

β-amyloid
duration of the vasoactivity (contractions and relaxations) [1]: fifteen to twenty minutes | time until vasoactive effect is evident [1]: within thirty seconds; also recorded: less than one minute; also recorded: less than five minutes | initial detectable change: minor relaxation ([1]; after addition of β-amyloid): < 0.1 g | effect of β-amyloid on basal tension ([1]; increasing concentrations of β-amyloid): constricted the blood vessel in a concentration-dependent manner | dependence of the constricting effect on endothelium ([1]; vessel with vs without endothelium): only occurred in the presence of endothelium | cumulative percentage relaxation by acetylcholine after β-amyloid ([2]; 10^-6 M β-amyloid, fifteen minute incubation, 10^-7 M phenylephrine, all points past 10^-8 M acetylcholine): significantly lowered | effect of β-amyloid pretreatment on acetylcholine induced relaxation ([2]; cumulative small doses of acetylcholine (FIG. 4)): significantly reduced relaxation induced by the same doses of acetylcholine | effect of washing the tissue after β-amyloid on acetylcholine induced relaxation ([2]; washout after β-amyloid exposure): did not restore the acetylcholine-induced relaxation to control levels | effect of β-amyloid pretreatment on phenylephrine constriction ([3]; FIG. 4): enhanced constriction | PE induced contraction, +β-Amyloid P1 (±SEM), percent of control value ([3]; PE 2×10^-8 M): 13.3 (5.9) % | PE induced contraction, +β-Amyloid P2 (±SEM), percent of control value ([3]; PE 2×10^-8 M): 20 (5.0) % | PE induced contraction, +β-Amyloid P1 (±SEM), percent of control value ([3]; PE 4×10^-8 M): 75 (6.0) % | PE induced contraction, +β-Amyloid P2 (±SEM), percent of control value ([3]; PE 4×10^-8 M): 99 (15.0) % | PE induced contraction, +β-Amyloid P1 (±SEM), percent of control value ([3]; PE 8×10^-8 M): 105 (15.0) % | PE induced contraction, +β-Amyloid P2 (±SEM), percent of control value ([3]; PE 8×10^-8 M): 133 (20.0) % | PE induced contraction, +β-Amyloid P1 (±SEM), percent of control value ([3]; PE 16×10^-8 M): 128 (11.7) % | PE induced contraction, +β-Amyloid P2 (±SEM), percent of control value ([3]; PE 16×10^-8 M): 141 (17.6) % | β-amyloid concentration required to induce the morphological changes ([4]; incubation periods of fifteen minutes): ≥ 5×10^-7 M | morphological effect on endothelial cells ([4]; β-amyloid 10^-6 M, 37° C., thirty minutes): induced significant damage to the endothelial cells | morphology of endothelial layer after β-amyloid [5]: Derangement of the endothelial layer, condensed nucleus, separation from the intimal elastic lamina, and areas of denuded internal elastic lamina | contraction of porcine coronary artery samples [6]: dose dependent contraction | effect on vasodilation by bradykinin ([7]; increasing concentrations of bradykinin): reduced the vasodilation caused by the bradykinin | effect on vasoconstriction ([7]; preconstricted with U46619): significant increase in vasoconstriction | contraction induced by the vasoconstrictor U46619 after β-amyloid [8]: significantly increased
